Measurements from the NIST ThermoML archive (doi:10.1016/j.jct.2015.12.028).

Settings: Liquid, light scattering

CCCCCC(=O)OCC [ethyl hexanoate]
Settings | speed of sound [m/s]
291.92 K, 7170 kPa | 1273.2
292.04 K, 8640 kPa | 1284
292.14 K, 10010 kPa | 1290.3
293.41 K, 5690 kPa | 1255
293.44 K, 4180 kPa | 1247.7
294.64 K, 100 kPa | 1224.2
294.64 K, 1100 kPa | 1230.1
294.84 K, 2620 kPa | 1239
301.5 K, 2670 kPa | 1205.7
301.55 K, 1070 kPa | 1195.5
301.56 K, 4130 kPa | 1214.4
301.58 K, 7090 kPa | 1236.9
301.6 K, 5650 kPa | 1225.7
301.63 K, 8670 kPa | 1245.9
301.73 K, 10030 kPa | 1258.6
302.55 K, 100 kPa | 1189.8
313.14 K, 9980 kPa | 1220.5
313.24 K, 4030 kPa | 1185
313.24 K, 8510 kPa | 1215.6
313.25 K, 7000 kPa | 1205.4
313.26 K, 5550 kPa | 1196.2
313.28 K, 2510 kPa | 1175.2
313.3 K, 100 kPa | 1155.3
313.3 K, 1020 kPa | 1160.8
323.18 K, 10000 kPa | 1187.7
323.28 K, 8470 kPa | 1179.1
323.31 K, 2480 kPa | 1142.4
323.31 K, 4010 kPa | 1149.9
323.33 K, 6950 kPa | 1170
323.35 K, 5480 kPa | 1162
323.36 K, 100 kPa | 1120.8
323.36 K, 1020 kPa | 1128.5
332.94 K, 8560 kPa | 1145.7
332.97 K, 6950 kPa | 1135.6
332.97 K, 10050 kPa | 1156.4
332.99 K, 100 kPa | 1086.3
332.99 K, 1060 kPa | 1090.1
333.01 K, 2560 kPa | 1105.9
333.04 K, 5580 kPa | 1125.1
333.07 K, 4030 kPa | 1115.9
342.65 K, 2510 kPa | 1072.2
342.67 K, 100 kPa | 1051.7
342.67 K, 1000 kPa | 1054.8
342.69 K, 3940 kPa | 1082.2
342.71 K, 5500 kPa | 1094.5
342.72 K, 8500 kPa | 1109.7
342.74 K, 7030 kPa | 1099.1
342.82 K, 9990 kPa | 1124.8
352.33 K, 100 kPa | 1017.1
352.33 K, 1100 kPa | 1023
352.33 K, 2540 kPa | 1038.4
352.35 K, 4000 kPa | 1050.4
352.41 K, 5530 kPa | 1061
352.42 K, 7020 kPa | 1068.2
352.43 K, 8490 kPa | 1080.4
352.73 K, 10060 kPa | 1093.6
362.56 K, 100 kPa | 982.46
362.56 K, 1000 kPa | 987.04
362.56 K, 4010 kPa | 1015.1
362.58 K, 8530 kPa | 1045.7
362.6 K, 7060 kPa | 1033.4
362.62 K, 5540 kPa | 1026
362.64 K, 2530 kPa | 1000.9
362.68 K, 10100 kPa | 1061.2
372.53 K, 2500 kPa | 968.37
372.54 K, 100 kPa | 947.78
372.54 K, 1040 kPa | 952.55
372.55 K, 7020 kPa | 1007.7
372.56 K, 8530 kPa | 1016.3
372.57 K, 5560 kPa | 998.43
372.59 K, 4050 kPa | 985.39
372.86 K, 9900 kPa | 1029.5
382.71 K, 8540 kPa | 980
382.73 K, 7020 kPa | 971.25

Settings | speed of sound [m/s]
294.37 K | 1220.1
301.55 K | 1191
313.34 K | 1152.7
324.26 K | 1115.1
333.16 K | 1077.6
343.2 K | 1046.1
353.08 K | 1010
363.12 K | 975
373.14 K | 942
